Marks after values point to notes of the source that are not given here.
System: KKA^y mice
Test: Chronic 4-week treatment of diabetic KKA^y mice in drinking water
Type: in vivo, mouse
Method: Mice were fasted for 16 h. A glucose solution was administered by intragastric gavage at a dose of 1 g/kg body weight. The blood glucose concentration was measured at 0, 30, 60, 90, 120 min after glucose administration in the blood collected from the tip of the tail vein, using an Accu-Chek glucose meter (Roche, Montreal, QC, Canada).
At the end of the experiment, blood samples were collected from renal artery during exsanguinations carried out under anesthesia using heparinized tools. The samples were centrifuged at 3000 g for 10 min at 4° C. The plasma samples were used for the analyses of biochemical parameters. Plasma adiponectin, insulin and leptin were measured using radioimmuno assay (RIA) kits (Millipore, Montreal, QC, Canada).
In preliminary experiments, three different doses of BJ, namely 20, 40, 80 ml/kg/day, were incorporated in the drinking water and provided to mice for one week. […] Therefore, this dose was used for the chronic treatment studies described here.
Forty-two 7 week-old KKA^y mice were randomly divided into 6 groups (n=7) which received either water, normal blueberry juice (NJ) (80 ml/kg/day), biotransformed blueberry juice (BJ) (80 ml/kg/day; prepared as described in Example 8), or Metformin (0.85 g/kg/day) (Meglasson M D et al., supra) in drinking water. […] The sixth and final group received SW but had unrestricted access to solid food. Baseline measurements of fed blood glucose levels, body weight, food intake and water consumption were taken daily at 11.00 a.m. At the onset of experiments and after 4 weeks, an oral glucose tolerance test (OGTT) was performed, as described in Example 8.

[1] = NJ, BJ 80 ml/kg/day, MET 0.85 g/kg/day, 4 weeks

SMILES: CN(C)C(=N)N=C(N)N [MET, Metformin]
- Rise of circulating adiponectin above values of control animals (4 weeks): neither NJ nor Metformin treatments could modify the low level of adiponectin
- Reduction of circulating insulin levels vs controls (4 weeks, BJ effect not statistically significant): normalized
- Drop of OGTT AUC between the onset and the end of treatment (4 weeks, glucose 1 g/kg by gavage): 38%
- Adiponectin (plasma) [1]: 5.9 ± 0.6^a μg/ml
- Insulin (plasma) [1]: 1.7 ± 0.5^b ng/ml
- Leptin (plasma) [1]: 27.6 ± 2.9^a ng/ml
- Reduction of food intake as compared to controls [1]: 30%
- Time to reach the maximum (BJ) or normalising (Metformin) effect on glycemia (chronic treatment in drinking water): ≤ 4 days
- Glycemia level (fed state) (during 4-week treatment): 10 mM
- Body weight loss as compared to controls (end of the 4-week treatment period): 4%

— US9358262B2, “Use of antioxidant-enriched fermented blueberry extracts in the treatment of diabetes” (priority 2003, dated 2016)
